# Measured values taken from ChEMBL document CHEMBL5260832, “Hepatoprotective natural triterpenoids” (Eur J Med Chem, 2018).
# Legend:
# [1] = species on record: Mus musculus; test: Hepatoprotective activity in CCl4-induced toxicity in liver injured mouse assessed as increase in inhibition of liver damage relative to control; assay type: functional; design: concentration or dose not given beside the values
# [2] = test system: Mus musculus; test: Hepatoprotective activity against D-GaIN/CCl4 induced liver injury mouse model assessed as reduction in GPT level at 30 microg/kg, iv relative to control; assay type: functional; design: scale not given: the % may be the effect or the level left; settings: dose 30 µg/kg
# [3] = test system: L02; test: Hepatoprotective activity against D-GaIN-induced cell damage in human HL7702 cells assessed as increase in cell survival at 10 uM relative to control; assay type: functional
# [4] = Hepatotoxicity in D-GaIN induced in Wistar rat model hepatocyte assessed as reduction in PLA2 level; assay type: toxicity, cell-based
# [5] = test system: Hepatocyte; test: Hepatoprotective activity against D-GaIN/TNFalpha-induced cell death in mouse hepatocyte at 100 uM relative to control; assay type: functional, cell-based; settings: Mus musculus, Hepatocyte
# [6] = Antiproliferative activity against rat HSC-T6 cells assessed as reduction in cell viability incubated for 48 hrs by MTT assay; assay type: functional, cell-based; settings: HSC-T6, 48 h
smiles,measurement,setting,value
C[C@H]1[C@H](C)CC[C@]2(CO)CC[C@]3(C)C(=CC[C@@H]4[C@@]5(C)C[C@@H](O)[C@H](O)[C@@](C)(CO)[C@@H]5CC[C@]43C)[C@H]12,Activity,[1],39.7%
C[C@H]1[C@H](C)CC[C@]2(C(=O)O)CC[C@]3(C)C(=CC(=O)[C@@H]4[C@@]5(C)C[C@@H](O)[C@H](O)[C@@](C)(CO)[C@@H]5CC[C@]43C)[C@H]12,Activity,[1],25.6%
CC(C)=CCC[C@](C)(O)[C@H]1CC[C@]2(C)[C@@H]1[C@H](O)C[C@@H]1[C@@]3(C)CC[C@H](O)C(C)(C)[C@@H]3[C@@H](O[C@@H]3O[C@H](CO)[C@@H](O)[C@H](O)[C@H]3O[C@@H]3O[C@H](CO)[C@@H](O)[C@H](O)[C@H]3O)C[C@]12C [GINSENOSIDE RF],Activity,[2],77%
C/C(CC(=O)CC(C)C(=O)O)=C1/CC(=O)[C@@]2(C)C3=C(C(=O)C[C@]12C)[C@@]1(C)CC[C@H](O)C(C)(C)[C@@H]1CC3=O (stereo not given in full),Activity,[3],55%
CC1(C)[C@@H](O[C@@H]2O[C@H](C(=O)O)[C@@H](O)[C@H](O)[C@H]2O[C@@H]2O[C@H](C(=O)O)[C@@H](O)[C@H](O)[C@H]2O)CC[C@]2(C)[C@H]3C(=O)C=C4[C@@H]5C[C@]6(C)C[C@@H](OC6=O)[C@]5(C)CC[C@@]4(C)[C@]3(C)CC[C@@H]12,IC50,[4],32.2 µM
CC1=C2C3=CC[C@@H]4[C@@]5(C)C[C@@H](O)[C@H](O)[C@@](C)(CO)[C@@H]5CC[C@@]4(C)[C@]3(C)CC[C@@]2(C(=O)O)CC[C@H]1C,IC50,[5],51 µM
CC(=O)OC[C@@]1(C)[C@@H]2CC[C@]3(C)[C@H](C(=O)C=C4[C@@H]5[C@@H](C)[C@H](C)CC[C@]5(C(=O)O)CC[C@]43C)[C@@]2(C)CC(=O)[C@@H]1O,Activity,[1],35.9%
C[C@@H]1O[C@@H](O[C@H]2[C@H](OC(=O)[C@]34CCC(C)(C)C[C@H]3C3=CC[C@@H]5[C@@]6(C)C[C@H](O)[C@H](O[C@@H]7O[C@H](CO)[C@@H](O)[C@H](O)[C@H]7O)C(CO)(CO)[C@@H]6CC[C@@]5(C)[C@]3(C)C[C@H]4O)OC[C@H](O)[C@@H]2O)[C@H](O)[C@H](O)[C@H]1O[C@@H]1OC[C@@H](O)[C@H](O[C@@H]2OC[C@](O)(CO)[C@H]2O)[C@H]1O [PLATYCODIN D],IC50,[6],1.77 µM
CC1(C)CC[C@]2(C(=O)O)[C@H](O)C[C@]3(C)C(=CC[C@@H]4[C@@]5(C)C[C@H](O)[C@H](O[C@@H]6O[C@H](CO)[C@@H](O)[C@H](O)[C@H]6O)C(CO)(CO)[C@@H]5CC[C@]43C)[C@@H]2C1,IC50,[6],13.4 µM
C[C@@H]1O[C@@H](O[C@H]2[C@H](OC(=O)[C@]34CCC(C)(C)C[C@H]3C3=CC[C@@H]5[C@@]6(C)C[C@H](O)[C@H](O[C@@H]7O[C@H](CO)[C@@H](O)[C@H](O)[C@H]7O)[C@](C)(CO)[C@@H]6CC[C@@]5(C)[C@]3(C)C[C@H]4O)OC[C@H](O)[C@@H]2O)[C@H](O)[C@H](O)[C@H]1O[C@@H]1OC[C@@H](O)[C@H](O[C@@H]2OC[C@](O)(CO)[C@H]2O)[C@H]1O,IC50,[6],1.04 µM
CC(C)=CCC[C@@](C)(O)[C@H]1CC[C@]2(C)[C@@H]1[C@H](O)C[C@@H]1[C@@]3(C)CC[C@H](O)C(C)(C)[C@@H]3[C@@H](O[C@@H]3O[C@H](CO)[C@@H](O)[C@H](O)[C@H]3O[C@@H]3O[C@H](CO)[C@@H](O)[C@H](O)[C@H]3O)C[C@]12C,Activity,[2],73%
CC(CC(=O)C[C@@H](C)C1=CC(=O)[C@@]2(C)[C@@H]3C(=O)C[C@H]4C(C)(C)[C@@H](O)CC[C@]4(C)[C@H]3C(=O)C[C@]12C)C(=O)O (stereo not given in full),Activity,[3],75%
COC(=O)[C@]12CC[C@@H](C)[C@H](C)[C@H]1C1=CC[C@@H]3[C@@]4(C)C[C@@H](OC(C)=O)[C@H](O)[C@@](C)(COC(C)=O)[C@@H]4CC[C@@]3(C)[C@]1(C)CC2,Activity,[1],54.2%
C/C(=C/C(=O)CC(C)C(=O)O)[C@H]1CC(=O)[C@@]2(C)C3=C(C(=O)C[C@]12C)[C@@]1(C)CC[C@H](O)C(C)(C)[C@@H]1C[C@@H]3O (stereo not given in full),Activity,[3],65%
CC(C)=CCC[C@](C)(O)[C@H]1CC[C@]2(C)[C@@H]1[C@H](O)C[C@@H]1[C@@]3(C)CC[C@H](O[C@@H]4O[C@H](CO)[C@@H](O)[C@H](O)[C@H]4O[C@@H]4O[C@H](CO)[C@@H](O)[C@H](O)[C@H]4O)C(C)(C)[C@@H]3CC[C@]12C,Activity,[2],63%
C/C(=C\CCC(C)(O)[C@H]1C[C@H](O)[C@@]2(C)C3=C(C(=O)C[C@]12C)[C@@]1(C)CC[C@H](O)C(C)(C)[C@@H]1C[C@@H]3O)C(=O)O (stereo not given in full),Activity,[3],43%
C[C@@H]1O[C@@H](O[C@H]2[C@H](OC(=O)[C@]34CCC(C)(C)C[C@H]3C3=CC[C@@H]5[C@@]6(C)C[C@H](O)[C@H](O[C@@H]7O[C@H](CO)[C@@H](O)[C@H](O)[C@H]7O)C(CO)(CO)[C@@H]6CC[C@@]5(C)[C@]3(C)C[C@H]4O)OC[C@H](O)[C@@H]2O)[C@H](O)[C@H](O)[C@H]1O[C@@H]1OC[C@@H](O)[C@H](O)[C@H]1O,IC50,[6],8.24 µM
CC(=O)[C@H]1CC(=O)[C@@]2(C)C3=C(C(=O)C[C@]12C)[C@@]1(C)CCC(=O)C(C)(C)[C@@H]1C[C@@H]3O,Activity,[3],58%
CC(C)=CCC[C@@](C)(O)[C@H]1CC[C@]2(C)[C@@H]1[C@H](O)C[C@@H]1[C@@]3(C)CC[C@H](O[C@@H]4O[C@H](CO)[C@@H](O)[C@H](O)[C@H]4O[C@@H]4O[C@H](CO)[C@@H](O)[C@H](O)[C@H]4O)C(C)(C)[C@@H]3CC[C@]12C,Activity,[2],34%
COC(=O)[C@]12CC[C@@H](C)[C@H](C)[C@H]1C1=CC[C@@H]3[C@@]4(C)CC(=O)[C@H](O)[C@@](C)(COC(C)=O)[C@@H]4CC[C@@]3(C)[C@]1(C)CC2,Activity,[1],46.4%
CC(CC(=O)C[C@@H](C)[C@H]1C[C@H](O)[C@@]2(C)C3=C(C(=O)C[C@]12C)[C@@]1(C)CC[C@H](O)C(C)(C)[C@@H]1C[C@@H]3O)C(=O)O (stereo not given in full),Activity,[3],76%
CC1(C)CC[C@]2(N)C(=O)C[C@]3(C)C(=CC[C@@H]4[C@@]5(C)C[C@H](O)[C@H](O[C@@H]6O[C@H](CO)[C@@H](O)[C@H](O)[C@H]6O)C(CO)(CO)[C@@H]5CC[C@]43C)[C@@H]2C1,IC50,[6],69.6 µM
CC1(C)CC[C@]2(N)C(=O)C[C@]3(C)C(=CC[C@@H]4[C@@]5(C)C[C@H](O)[C@H](O)C(CO)(CO)[C@@H]5CC[C@]43C)[C@@H]2C1,IC50,[6],5.27 µM
CC(C)=CCC[C@](C)(O)[C@H]1CC[C@]2(C)[C@@H]1[C@H](O)C[C@@H]1[C@@]3(C)CC[C@H](O[C@@H]4O[C@H](CO)[C@@H](O)[C@H](O)[C@H]4O)C(C)(C)[C@@H]3CC[C@]12C [GINSENOSIDE RH2],Activity,[2],31%
CC(=O)OC[C@@]1(C)[C@@H]2CC[C@]3(C)[C@H](C(=O)C=C4[C@@H]5[C@@H](C)[C@H](C)CC[C@]5(C(=O)O)CC[C@]43C)[C@@]2(C)CC(=O)[C@@H]1OC(C)=O,Activity,[1],22%
